Laboratory results published in ChEMBL document CHEMBL4219083, “Reduction of Circulating Cancer Cells and Metastases in Breast-Cancer Models by a Potent EphA2-Agonistic Peptide-Drug Conjugate” (J Med Chem, 2018).
Calls of active or inactive are those of the source. No cut-off for these calls is given here.

What was measured:
MDA-MB-231 [1] = assay: Antimetastatic activity against human MDA-MB-231 cells xenografted in NOD-scid mouse assessed as reduction in tumor burden at 24.5 mg/kg, iv administered thrice per week for 2 weeks; assay type: functional, organism-based
MDA-MB-231 [2] = assay: Antimetastatic activity against human MDA-MB-231 cells xenografted in NOD-scid mouse assessed as reduction in circulating tumor cells at 24.5 mg/kg, iv administered thrice per week for 2 weeks immunofluorescent staining-based assay; assay type: functional, organism-based
Mus musculus = assay: Toxicity in BALB/c mouse implanted with mouse 4T1 cells assessed as reduction in body weight at 24.5 mg/kg administered thrice per week for 2 weeks after 15 days post implantation; assay type: organism-based; details: in vivo
4T1 [3] = assay: Antimetastatic activity against mouse 4T1 cells implanted in BALB/c mouse assessed as reduction in gross lung-metastasis count at 24.5 mg/kg administered thrice per week for 2 weeks after 15 days post implantation relative to control; assay type: functional; set-up: scale not given: the % may be the effect or the level left
4T1 [4] = assay: Antimetastatic activity against mouse 4T1 cells implanted in BALB/c mouse assessed as reduction in microscopic lung nodules at 24.5 mg/kg administered thrice per week for 2 weeks after 15 days post implantation by H and E staining-based assay; assay type: functional, organism-based
4T1 [5] = assay: Antimetastatic activity against mouse 4T1 cells implanted in BALB/c mouse assessed as reduction in CD31-expressing vasculature at 24.5 mg/kg administered thrice per week for 2 weeks after 15 days post implantation by immunostaining-based assay; assay type: functional, organism-based

CCCC[C@H](NC(=O)[C@@H]1CCCN1C(=O)[C@@H](NC(=O)[C@H](CO)NC(=O)[C@H](CC(=O)O)NC(=O)[C@@H]1CCCN1C(=O)[C@H](Cc1ccc(O)cc1)NC(=O)[C@H](C)NC(=O)[C@H](CO)NC(=O)COc1ccc(F)c(Cl)c1)C(C)C)C(=O)N[C@@H](CCO)C(=O)N[C@@H](CO)C(=O)NCC(=O)NCCCC[C@H](NC(=O)CNC(=O)[C@H](CO)NC(=O)[C@H](CCO)NC(=O)[C@H](CCCC)NC(=O)[C@@H]1CCCN1C(=O)[C@@H](NC(=O)[C@H](CO)NC(=O)[C@H](CC(=O)O)NC(=O)[C@@H]1CCCN1C(=O)[C@H](Cc1ccc(O)cc1)NC(=O)[C@H](C)NC(=O)[C@H](CO)NC(=O)COc1ccc(F)c(Cl)c1)C(C)C)C(=O)NCC(=O)N[C@H](CCCCNC(=O)CCCc1cn(CCCCCC(=O)O[C@@H](C(=O)O[C@H]2C[C@@]3(O)[C@@H](OC(=O)c4ccccc4)[C@@H]4[C@]5(OC(C)=O)CO[C@@H]5C[C@H](O)[C@@]4(C)C(=O)[C@H](OC(C)=O)C(=C2C)C3(C)C)[C@@H](NC(=O)c2ccccc2)c2ccccc2)nn1)C(=O)NCC(=O)O
Activity (MDA-MB-231 [1]): Active
Activity (MDA-MB-231 [2]): Active
Activity (Mus musculus): Non-Toxic
Activity (4T1 [3]): >75%
Activity (4T1 [4]): Active
Activity (4T1 [5]): Active
